In data set [1] the test system is cellules KB. In words: Cytostatic effect on KB cells (crystal violet, optical density at 590 nm). It is filed as cell-based, humain. The note with it: 3 days at 37°C, optical density at 590 nm versus control, ***/** = statistical significance. An excerpt:
(§1) La toxicité a été évaluée par la mesure de la cytotoxicité et de la cytostase vis-à-vis de cellules KB selon une technique usuelle. L'activité antiparasitaire a été déterminée in vitro sur Leishmania donovani, promastigote selon un protocole opératoire décrit ci-après.
(§2) On fait appel à des cellules épithéliales KB provenant d'un carcinome oral épidermoïde humain obtenues selon H. EAGLE "Propagation in a fluid medium of a human epidermoid carcinoma strain KB (21811)", Proc. Soc. Exp. Biol. and Med., 89, pages 362-364, (1955) et commercialisées par la Société dite EUROBIO.
(§3) Le milieu de culture utilisé avait la composition suivante
(§4) L'ensemencement se fait en boîte de 12 cupules contenant chacune 2 ml du milieu. Le produit à tester est mis en solution dans le diméthylsulfoxyde (DMSO) et dilué par du milieu de culture. La solution ainsi obtenue est ajoutée au milieu de culture pour obtenir des concentrations en produit à tester de 5, 10, 20, 30, 40, et […] par ml de milieu. Les cellules sont ajoutées en même temps que la solution du produit à tester.
(§5) Le milieu ensemencé et ainsi traité est mis à l'étuve à 37°C pendant 3 jours. Après fixation des cellules par la méthode dite au cristal violet [selon la technique de R.J. GILLIER et al., "Determination of cell number in monolayer cultures", Analytical Biochemistry 159, pages 109-113, (1986)]. […]

Data set [2] concerns cellules KB. In words: Cytotoxic effect on KB cells (dose lethal for 100 % of cells). Particulars: 3 days at 37°C, dose lethal for 100 % of cells (complete disappearance of the cell layer). The class given is cell-based, humain.
Source text: as §1, §2, §3, §4, §5

The subject of data set [3] is Leishmania donovani, promastigote. Nature of the data set: Anti-Leishmania effect in vitro (growth inhibition of promastigotes, cell count). Particulars: for inhibition (I%): growth inhibition of Leishmania donovani promastigotes; for DI-50: dose of 50 % inhibition, 26°C; for DI-50 / DImax: Leishmania donovani LRC L52 promastigotes, 3 to 4 days; for DImax: dose of maximal measured inhibition. The class given is cell-based. As to the method:
as §1
On fait appel à une souche de Lieshmania donovani LRC L52 (de la collection OMS).
as §3
L'ensemencement se fait dans des boîtes de 24 cupules contenant chacune 500 µl de milieu. Le milieu est ensemencé par 500 000 promastigotes par cupule puis placé dans une étuve à CO₂ à 26°C pendant 3 à 4 heures.
Le produit à tester est ajouté en solution dans le DMSO à des concentrations variables sous un volume de 25 µl par cupule. Les boîtes ensemencées et traitées par le produit sont laissées à l'étuve pendant 3 à 4 jours.
La mesure de l'activité est effectuée par comptage des cellules à l'hémocytomètre, le nombre obtenu étant rapporté à un témoin dépourvu de produit (100 % de cellules, soit 0 % d'inhibition de croissance). Chaque manipulation est effectuée 2 fois.
Les résultats obtenus sont également consignés dans le tableau I ci-après où sont données les doses d'inhibition à 50 % (DI-50) et les doses d'inhibition maximale mesurées (DImax).

`CCCCCCCCCC(O)CC1CCC(C2CCC(C(O)CCCCCCCCCCC(O)CCC3=CC(C)OC3=O)O2)O1` (stereo not shown) [Ex 8, 2-[5-(2-hydroxyundécyl)-2-tétrahydrofurannyl]-5-[14-(5-méthyl-2-oxo-2,5-dihydro-3-furannyl)-1,12-dihydroxytétradécyl]-tétrahydrofuranne]: the Cytostase in the data set on cellules KB [1] is on record as 20** µg.ml. The Cytotoxicité in the data set on cellules KB [2] worked out at 40 µg·mL. Also, the “inhibition (I%)” value in data set [3] (DI = 20 µg.ml) is listed as 11%. In data set [3], the DI-50 is >20 µg·mL and the DImax came out at 20 µg·mL.
With `CCCCCCCCCC(O)CC1CCC(C2CCC(C(O)CCCC(O)CCCCCCC(O)CCC3=CC(C)OC3=O)O2)O1` (stereo not shown) [Ex 1, 2-[5-(2-hydroxyundécyl)-2-tétrahydrofurannyl]-5-[14-(5-méthyl-2-oxo-2,5-dihydro-3-furannyl)-1,5,12-trihydroxytétradécyl]-tétrahydrofuranne], in the data set on cellules KB [1], the Cytostase is on record as 20*** µg.ml. For the same molecule, in the data set on cellules KB [2], the Cytotoxicité came to 40 µg·mL. Besides, the “inhibition (I%)” value in data set [3] (DI = 10 µg.ml) came to 100%. Further, in data set [3], the DI-50 is 2,5 µg.ml and the DImax was found to be 10 µg·mL.

The record behind these values is patent publication EP0363230A2, “Use of acetogenins in therapy as antiparasitic substances” (LA[…] Société anonyme dite:, priority 1988, dated 1990).
